Experimental data from ChEMBL document CHEMBL1201862, “PubChem BioAssay data set” (2004).
Activity calls are given as the source filed them.

Columns and labels:
[1] = target: Luciferin 4-monooxygenase (Photinus pyralis, UniProt P08659); test: inhibition of purified Photinus pyralis luciferase – biochemical, luminescence, dose response (AID 1891)
[2] = Luminescence Cell-Based Dose Confirmation HTS to Identify Inhibitors of Platelet Dense Granule Release. [Related pubchem assays: 1663 (Primary HTS), 1678 (Summary of Project)]; assay type: functional
[3] = target: Nonstructural protein 1 (Influenza A virus, UniProt Q194T2); assay type: functional, Influenza A virus (A/California/07/2009(H1N1))
[4] = test system: MDCK; test: antiviral activity against H1N1 influenza, dose response, cell-based, strain KY180 (AID 540254); assay type: functional; conditions: Canis lupus familiaris
[5] = test system: MDCK; test: MDCK cell cytotoxicity, dose response, cytotoxicity control (AID 540296); assay type: functional; conditions: Canis lupus familiaris
[6] = target: Cytochrome P450 3A4 (Homo sapiens, UniProt P08684);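 further: CYP3A4 tested as one member of a cytochrome P450 panel screen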
[7] = target: Voltage-gated inwardly rectifying potassium channel KCNH2 (Homo sapiens, UniProt Q12809); conditions: Potency;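 further: confirmatory quantitative high-throughput screen measuring inhibition of hERG channel activity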
[8] = target: T1, Short transient receptor potential channel 4 (Mus musculus, UniProt Q9QUQ5); test: block of DAMGO-driven TRPC4 calcium entry – cell-based, HEK293 TRPC4/mu-opioid, Fluo-4 calcium, dose response (AID 434942); assay type: functional;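 further: potency of inhibitors blocking the TRPC4 calcium response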
T1 sequence (Q9QUQ5 whole entry): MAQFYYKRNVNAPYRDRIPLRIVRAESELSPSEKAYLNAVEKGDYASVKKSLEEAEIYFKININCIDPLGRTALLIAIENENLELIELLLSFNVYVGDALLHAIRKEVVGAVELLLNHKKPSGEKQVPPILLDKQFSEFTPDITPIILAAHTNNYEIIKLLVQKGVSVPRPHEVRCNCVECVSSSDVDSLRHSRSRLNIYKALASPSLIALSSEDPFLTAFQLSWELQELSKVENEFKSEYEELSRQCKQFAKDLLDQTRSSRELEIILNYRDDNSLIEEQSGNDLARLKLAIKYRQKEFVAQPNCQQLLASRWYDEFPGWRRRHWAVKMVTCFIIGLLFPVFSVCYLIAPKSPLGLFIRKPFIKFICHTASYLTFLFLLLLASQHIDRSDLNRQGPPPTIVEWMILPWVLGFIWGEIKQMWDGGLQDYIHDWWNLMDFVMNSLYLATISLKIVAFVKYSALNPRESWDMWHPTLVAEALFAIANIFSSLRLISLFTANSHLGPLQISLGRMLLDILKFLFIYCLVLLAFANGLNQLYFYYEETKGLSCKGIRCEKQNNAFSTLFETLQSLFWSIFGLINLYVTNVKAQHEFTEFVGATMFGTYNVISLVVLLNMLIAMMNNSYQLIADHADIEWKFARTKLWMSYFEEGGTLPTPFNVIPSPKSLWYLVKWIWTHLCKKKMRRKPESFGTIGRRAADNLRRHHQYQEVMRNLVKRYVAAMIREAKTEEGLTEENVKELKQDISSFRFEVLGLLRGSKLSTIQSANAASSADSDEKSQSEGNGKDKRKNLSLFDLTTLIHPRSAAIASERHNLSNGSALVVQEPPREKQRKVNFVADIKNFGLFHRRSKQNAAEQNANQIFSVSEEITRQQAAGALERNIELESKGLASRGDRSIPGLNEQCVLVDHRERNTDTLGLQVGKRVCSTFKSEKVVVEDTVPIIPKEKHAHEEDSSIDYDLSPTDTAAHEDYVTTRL

[9] = target: FAD-linked sulfhydryl oxidase ALR (Homo sapiens, UniProt P55789); test: ALR-catalysed DTT oxidation blockers – biochemical, H2O2 detection, luminescence, cherry-pick, dose response (AID 493248)
[10] = target: T1, Short transient receptor potential channel 4; test: SAR Analysis for the identification of selective inhibits of the transient receptor potential cation channel C4 (TRPC4): Automated Electrophysiology. [Related pubchem assays (depositor defined):AID2256]; assay type: functional
[11] = target: T2, Cytochrome P450 1A2 (Homo sapiens, UniProt P05177);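 further: PubChem cytochrome P450 panel assay, CYP1A2 panel member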
T2 sequence (P05177 whole entry): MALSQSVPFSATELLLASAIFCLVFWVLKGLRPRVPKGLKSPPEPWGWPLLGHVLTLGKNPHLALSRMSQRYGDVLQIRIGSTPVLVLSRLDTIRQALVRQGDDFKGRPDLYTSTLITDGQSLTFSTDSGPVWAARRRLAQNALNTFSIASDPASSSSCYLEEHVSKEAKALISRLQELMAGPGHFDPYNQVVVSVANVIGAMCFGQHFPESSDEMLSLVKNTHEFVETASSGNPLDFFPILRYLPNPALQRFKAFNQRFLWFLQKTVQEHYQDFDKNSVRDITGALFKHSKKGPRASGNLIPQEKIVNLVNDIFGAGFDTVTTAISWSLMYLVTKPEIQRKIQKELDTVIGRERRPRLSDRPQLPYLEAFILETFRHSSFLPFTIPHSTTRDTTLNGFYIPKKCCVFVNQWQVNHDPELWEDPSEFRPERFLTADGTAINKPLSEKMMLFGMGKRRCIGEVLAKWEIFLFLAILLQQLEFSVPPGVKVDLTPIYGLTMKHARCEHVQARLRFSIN

[12] = target: Cytochrome P450 2C9 (Homo sapiens, UniProt P11712)
[13] = test system: Candida albicans; test: fluconazole-resistant Candida strain growth inhibitors – CaCi-8 strain, dry powder, set 4, dose response (AID 488950); assay type: functional, organism-based
[14] = target: Dual specificity protein kinase CLK1 (Homo sapiens, UniProt P49759); test: inhibition of human CLK1 activity – biochemical, cherry-picked samples, selectivity assay for Dyrk1A inhibitor project, dose response (AID 588811)
[15] = target: Dual specificity tyrosine-phosphorylation-regulated kinase 1A (Rattus norvegicus, UniProt Q63470); assay type: biochemical, Homo sapiens
[16] = test system: Jurkat; test: SAR Analysis of small molecule inhibitors of […] specific antigen receptor-induced NF-kB activation in a Jurkat cell line using a luminescence assay - Set 3. [Related pubchem assays (depositor defined):AID435022, AID435025, AID465]; assay type: functional, cell-based; conditions: Homo sapiens
[17] = test system: HEK293; test: SAR Analysis of small molecule inhibitors of B-cell specific antigen receptor-induced NF-kB activation in a HEK-293T cell line using a luminescence assay - Set 2. [Related pubchem assays (depositor defined):AID435022, AID435025, AID489021]; assay type: functional, cell-based; conditions: Homo sapiens
[18] = test system: HEK293; test: HEK293T cell viability loss, resazurin readout – resazurin fluorescence, cytotoxicity control for NF-kB activator project, SAR follow-up (AID 493251); assay type: functional, cell-based; conditions: Homo sapiens
[19] = Luminescence Cell-Based Dose Retest to Confirm Inhibitors of Cancer Stem Cells. [Related pubchem assays (depositor defined):AID2717, AID2721]; assay type: functional; conditions: Homo sapiens
[20] = viability loss of HMLE_sh_eGFP cells – cell-based, luminescence, counter-screen for HMLE_sh_ECad selective toxicity project, dose response (AID 463074); assay type: functional, Homo sapiens;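 further: HMLE human mammary epithelial cells expressing control shRNA against eGFP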
[21] = test system: HEK293; test: cells; assay type: functional, cell-based; conditions: Homo sapiens
[22] = target: T3, Nuclear receptor subfamily 0 group B member 1 (Homo sapiens, UniProt P51843); test: Luminescence-based cell-based high throughput dose response assay for inhibitors of the orphan nuclear receptor subfamily 0, group B, member 1 (DAX1; NR0B1). [Related pubchem assays (depositor defined):AID504766, AID504790]; assay type: functional
T3 sequence (P51843 whole entry): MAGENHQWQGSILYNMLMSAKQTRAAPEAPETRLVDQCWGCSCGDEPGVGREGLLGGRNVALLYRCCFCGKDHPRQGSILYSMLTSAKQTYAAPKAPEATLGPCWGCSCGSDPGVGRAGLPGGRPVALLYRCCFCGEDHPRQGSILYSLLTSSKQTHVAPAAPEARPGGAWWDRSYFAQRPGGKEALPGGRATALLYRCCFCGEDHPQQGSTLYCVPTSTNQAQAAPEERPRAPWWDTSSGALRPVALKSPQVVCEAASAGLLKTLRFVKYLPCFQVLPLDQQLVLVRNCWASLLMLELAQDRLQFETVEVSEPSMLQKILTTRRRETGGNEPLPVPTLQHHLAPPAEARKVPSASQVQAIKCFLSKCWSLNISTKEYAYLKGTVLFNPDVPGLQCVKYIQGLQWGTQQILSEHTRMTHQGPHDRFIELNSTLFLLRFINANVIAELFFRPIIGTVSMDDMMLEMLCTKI

[23] = target: T1, Short transient receptor potential channel 4; test: calcium entry via TRPC4 opening agents – cell-based, HEK293 TRPC4/mu-opioid, Fluo-4 calcium, dose response (AID 434937); assay type: functional
[24] = target: Delta-type opioid receptor (Homo sapiens, UniProt P41143); test: Counterscreen for agonists of heterodimerization of the mu 1 (OPRM1) and delta 1 (OPRD1) opioid receptors: Luminescence-based cell-based high throughput dose response assay to identify agonists of OPRD1 homodimerization. [Related pubchem assays (depositor defined):AID504326, AID504355, AID504692, AID504904, AID504905]; assay type: functional
[25] = target: Mu-type opioid receptor (Homo sapiens, UniProt P35372); test: Counterscreen for agonists of heterodimerization of the mu 1 (OPRM1) and delta 1 (OPRD1) opioid receptors: Luminescence-based cell-based high throughput dose response assay to identify agonists of OPRM1 homodimerization.; assay type: functional;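 further: U2OS cells expressing OPRM1 and beta-arrestin as split beta-galactosidase partners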
[26] = target: 5-hydroxytryptamine receptor 5A (Homo sapiens, UniProt P47898); test: Counterscreen for agonists of OPRM1-OPRD1 heterodimerization: luminescence-based cell-based high throughput dose response assay to identify agonists of 5-hydroxytryptamine (serotonin) 5A receptor (HTR5A). [Related pubchem assays (depositor defined):AID504326, AID504355, AID504692, AID504904, AID504905]; assay type: functional
[27] = target: CAAX prenyl protease 2 (Homo sapiens, UniProt Q9Y256); test: inhibition of Ras-converting CAAX protease Rce1 – biochemical, yeast membranes, quenched-peptide fluorescence, cherry-pick, dose response (AID 588849)
[28] = target: DNA dC->dU-editing enzyme APOBEC-3A (Homo sapiens, UniProt P31941); test: Dose Response confirmation of small molecule APOBEC3A DNA Deaminase Inhibitors via a fluorescence-based single-stranded DNA deaminase assay. [Related pubchem assays (depositor defined):AID493011, AID493024]; assay type: functional
[29] = target: DNA dC->dU-editing enzyme APOBEC-3G (Homo sapiens, UniProt Q9HC16); assay type: functional;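 further: Dose-response counterscreen measuring inhibition of APOBEC3G DNA deaminase activity, run while confirming APOBEC3A inhibitors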
[30] = target: T4, Microphthalmia-associated transcription factor (Homo sapiens, UniProt O75030); test: reducers of TRPM1 reporter luminescence, concentration series – cell-based, SK-MEL-5, cherry-picked, set 3, MITF inhibitor project, dose response (AID 493073); assay type: functional;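 further: SK-MEL-5 melanoma cells with luciferase driven by the MITF target TRPM1 promoter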
T4 sequence (O75030 whole entry): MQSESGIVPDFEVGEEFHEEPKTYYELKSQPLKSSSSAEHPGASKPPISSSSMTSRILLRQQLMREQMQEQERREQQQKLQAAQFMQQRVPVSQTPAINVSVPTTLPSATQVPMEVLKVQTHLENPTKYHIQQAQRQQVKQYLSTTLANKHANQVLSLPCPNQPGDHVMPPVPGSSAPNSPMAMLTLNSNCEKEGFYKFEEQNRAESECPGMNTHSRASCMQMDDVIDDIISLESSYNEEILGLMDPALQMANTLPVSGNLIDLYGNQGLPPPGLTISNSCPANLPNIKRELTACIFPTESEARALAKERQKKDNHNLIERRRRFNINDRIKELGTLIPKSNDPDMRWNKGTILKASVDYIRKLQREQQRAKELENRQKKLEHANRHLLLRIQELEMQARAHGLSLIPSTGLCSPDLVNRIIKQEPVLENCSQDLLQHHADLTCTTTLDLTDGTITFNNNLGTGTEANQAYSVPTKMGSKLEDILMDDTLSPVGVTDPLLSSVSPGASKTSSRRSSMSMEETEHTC

[31] = test system: A-375; test: proliferation inhibition in MITF-low A375 cells – cell-based, cherry-pick samples, set 2, counter-screen for MITF modulator project, dose response (AID 540335); assay type: functional; conditions: Homo sapiens

Chain of Mu-type opioid receptor (P35372 whole entry): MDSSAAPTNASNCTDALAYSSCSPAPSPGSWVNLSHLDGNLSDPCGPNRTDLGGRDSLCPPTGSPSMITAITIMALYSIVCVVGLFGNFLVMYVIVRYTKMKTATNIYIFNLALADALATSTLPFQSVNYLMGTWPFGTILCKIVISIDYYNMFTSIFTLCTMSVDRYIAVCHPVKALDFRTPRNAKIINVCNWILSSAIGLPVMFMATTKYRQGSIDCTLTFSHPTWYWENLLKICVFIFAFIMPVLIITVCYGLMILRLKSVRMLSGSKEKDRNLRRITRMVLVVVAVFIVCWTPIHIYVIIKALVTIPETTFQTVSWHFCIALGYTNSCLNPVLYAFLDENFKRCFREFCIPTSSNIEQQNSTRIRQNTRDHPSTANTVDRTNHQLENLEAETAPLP
Chain of CAAX prenyl protease 2 (Q9Y256 whole entry): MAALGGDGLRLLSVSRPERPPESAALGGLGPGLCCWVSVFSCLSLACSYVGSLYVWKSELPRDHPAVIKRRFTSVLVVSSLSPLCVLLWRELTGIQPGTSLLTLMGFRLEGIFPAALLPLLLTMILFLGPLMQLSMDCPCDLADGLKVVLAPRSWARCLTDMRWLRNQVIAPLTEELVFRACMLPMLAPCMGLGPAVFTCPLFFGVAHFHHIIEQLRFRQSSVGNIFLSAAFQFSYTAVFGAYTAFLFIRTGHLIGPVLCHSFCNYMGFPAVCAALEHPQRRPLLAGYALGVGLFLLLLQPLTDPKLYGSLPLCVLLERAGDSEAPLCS
Chain of Luciferin 4-monooxygenase (P08659 whole entry): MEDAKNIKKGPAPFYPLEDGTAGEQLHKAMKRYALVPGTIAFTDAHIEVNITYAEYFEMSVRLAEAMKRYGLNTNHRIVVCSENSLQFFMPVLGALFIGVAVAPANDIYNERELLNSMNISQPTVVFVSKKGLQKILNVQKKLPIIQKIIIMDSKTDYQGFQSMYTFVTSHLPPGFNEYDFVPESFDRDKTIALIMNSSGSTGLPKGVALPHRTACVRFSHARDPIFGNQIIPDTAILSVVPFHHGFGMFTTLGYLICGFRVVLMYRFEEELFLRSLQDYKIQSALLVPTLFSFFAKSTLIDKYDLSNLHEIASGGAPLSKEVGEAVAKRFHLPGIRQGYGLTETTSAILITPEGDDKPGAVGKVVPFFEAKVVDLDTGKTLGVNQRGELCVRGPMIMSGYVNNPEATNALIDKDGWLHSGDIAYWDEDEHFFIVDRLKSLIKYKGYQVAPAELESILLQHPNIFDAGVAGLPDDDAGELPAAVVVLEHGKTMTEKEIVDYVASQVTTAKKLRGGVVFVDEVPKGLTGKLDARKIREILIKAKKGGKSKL
Chain of DNA dC->dU-editing enzyme APOBEC-3G (Q9HC16 whole entry): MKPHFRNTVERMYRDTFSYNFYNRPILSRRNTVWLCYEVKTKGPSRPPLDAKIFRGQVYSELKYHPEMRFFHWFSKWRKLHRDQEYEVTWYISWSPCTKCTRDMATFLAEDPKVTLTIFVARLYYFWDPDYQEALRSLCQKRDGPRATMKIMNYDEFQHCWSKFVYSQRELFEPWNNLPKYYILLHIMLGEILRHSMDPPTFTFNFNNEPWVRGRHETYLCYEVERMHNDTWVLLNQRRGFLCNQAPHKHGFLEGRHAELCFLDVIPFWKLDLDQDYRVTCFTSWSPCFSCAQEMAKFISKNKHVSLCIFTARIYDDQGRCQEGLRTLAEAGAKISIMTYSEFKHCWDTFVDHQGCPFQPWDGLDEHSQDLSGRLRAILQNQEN
Chain of Cytochrome P450 2C9 (P11712 whole entry): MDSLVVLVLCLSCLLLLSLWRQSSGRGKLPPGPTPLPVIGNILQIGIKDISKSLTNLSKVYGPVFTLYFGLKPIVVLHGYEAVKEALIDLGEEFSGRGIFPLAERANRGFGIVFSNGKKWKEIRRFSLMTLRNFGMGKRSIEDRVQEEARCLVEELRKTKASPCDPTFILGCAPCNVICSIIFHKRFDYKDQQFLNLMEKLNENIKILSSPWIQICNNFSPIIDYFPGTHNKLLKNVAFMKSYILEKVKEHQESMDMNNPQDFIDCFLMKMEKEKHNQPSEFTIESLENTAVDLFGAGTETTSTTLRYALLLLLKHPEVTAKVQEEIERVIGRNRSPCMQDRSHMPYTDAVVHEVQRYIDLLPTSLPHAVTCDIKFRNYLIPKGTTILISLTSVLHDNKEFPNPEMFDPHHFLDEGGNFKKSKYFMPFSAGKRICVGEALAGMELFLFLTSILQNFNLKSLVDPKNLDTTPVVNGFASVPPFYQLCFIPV
Chain of Cytochrome P450 3A4 (P08684 whole entry): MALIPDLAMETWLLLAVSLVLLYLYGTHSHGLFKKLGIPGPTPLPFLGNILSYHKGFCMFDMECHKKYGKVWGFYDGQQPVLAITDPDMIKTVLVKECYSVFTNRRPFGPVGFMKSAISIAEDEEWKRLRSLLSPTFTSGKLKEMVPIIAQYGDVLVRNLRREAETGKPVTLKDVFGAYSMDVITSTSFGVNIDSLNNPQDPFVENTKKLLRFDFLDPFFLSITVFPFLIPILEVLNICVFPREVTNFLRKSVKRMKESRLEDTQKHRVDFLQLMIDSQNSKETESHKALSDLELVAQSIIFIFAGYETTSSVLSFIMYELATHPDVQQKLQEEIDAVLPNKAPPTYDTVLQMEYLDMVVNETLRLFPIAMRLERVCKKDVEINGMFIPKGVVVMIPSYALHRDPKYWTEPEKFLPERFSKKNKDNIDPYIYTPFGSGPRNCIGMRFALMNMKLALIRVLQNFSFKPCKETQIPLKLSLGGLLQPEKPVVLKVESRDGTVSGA
Chain of FAD-linked sulfhydryl oxidase ALR (P55789 whole entry): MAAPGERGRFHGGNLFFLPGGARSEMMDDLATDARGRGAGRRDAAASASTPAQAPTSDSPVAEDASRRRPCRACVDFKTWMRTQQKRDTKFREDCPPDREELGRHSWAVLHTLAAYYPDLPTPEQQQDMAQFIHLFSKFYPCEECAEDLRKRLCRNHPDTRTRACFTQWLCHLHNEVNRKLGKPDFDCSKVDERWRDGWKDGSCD
Chain of Nonstructural protein 1 (Q194T2 whole entry): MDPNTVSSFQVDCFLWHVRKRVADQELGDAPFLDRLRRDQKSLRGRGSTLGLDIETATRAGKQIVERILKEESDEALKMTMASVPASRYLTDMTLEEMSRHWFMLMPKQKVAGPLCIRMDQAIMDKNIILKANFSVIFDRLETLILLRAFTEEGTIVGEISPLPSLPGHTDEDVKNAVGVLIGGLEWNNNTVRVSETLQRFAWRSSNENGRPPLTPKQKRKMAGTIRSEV
Chain of Voltage-gated inwardly rectifying potassium channel KCNH2 (Q12809 whole entry): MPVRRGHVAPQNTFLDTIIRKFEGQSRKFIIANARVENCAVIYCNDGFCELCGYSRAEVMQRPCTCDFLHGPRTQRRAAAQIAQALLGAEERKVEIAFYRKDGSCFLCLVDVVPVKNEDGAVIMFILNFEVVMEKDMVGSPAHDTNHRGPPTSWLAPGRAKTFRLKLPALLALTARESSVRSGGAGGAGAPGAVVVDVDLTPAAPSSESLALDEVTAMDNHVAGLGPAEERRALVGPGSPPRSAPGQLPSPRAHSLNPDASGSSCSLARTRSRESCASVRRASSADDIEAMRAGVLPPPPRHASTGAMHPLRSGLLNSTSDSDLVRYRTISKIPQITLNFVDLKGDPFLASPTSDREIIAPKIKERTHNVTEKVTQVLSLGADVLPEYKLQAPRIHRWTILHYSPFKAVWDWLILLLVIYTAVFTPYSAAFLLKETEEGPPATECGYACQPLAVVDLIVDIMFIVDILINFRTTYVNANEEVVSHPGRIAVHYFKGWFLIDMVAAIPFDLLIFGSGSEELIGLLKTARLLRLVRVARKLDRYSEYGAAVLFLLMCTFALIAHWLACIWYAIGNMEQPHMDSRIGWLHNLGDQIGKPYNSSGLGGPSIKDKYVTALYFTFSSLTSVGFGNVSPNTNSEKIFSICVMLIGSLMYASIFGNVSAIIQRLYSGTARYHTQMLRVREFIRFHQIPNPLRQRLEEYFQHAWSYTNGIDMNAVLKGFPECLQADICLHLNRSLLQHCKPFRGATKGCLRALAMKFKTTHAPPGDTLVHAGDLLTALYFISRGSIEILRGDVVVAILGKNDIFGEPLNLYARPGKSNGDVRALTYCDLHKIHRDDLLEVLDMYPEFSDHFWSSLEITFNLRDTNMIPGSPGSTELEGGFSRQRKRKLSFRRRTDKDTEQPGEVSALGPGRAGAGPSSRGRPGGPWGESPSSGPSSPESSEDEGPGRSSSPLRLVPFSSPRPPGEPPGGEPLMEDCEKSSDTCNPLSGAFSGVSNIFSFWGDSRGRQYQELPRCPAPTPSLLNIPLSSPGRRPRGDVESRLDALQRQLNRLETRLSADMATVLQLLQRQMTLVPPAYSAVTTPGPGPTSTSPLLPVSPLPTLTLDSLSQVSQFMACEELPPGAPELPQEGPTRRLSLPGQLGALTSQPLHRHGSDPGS
Chain of DNA dC->dU-editing enzyme APOBEC-3A (P31941 whole entry): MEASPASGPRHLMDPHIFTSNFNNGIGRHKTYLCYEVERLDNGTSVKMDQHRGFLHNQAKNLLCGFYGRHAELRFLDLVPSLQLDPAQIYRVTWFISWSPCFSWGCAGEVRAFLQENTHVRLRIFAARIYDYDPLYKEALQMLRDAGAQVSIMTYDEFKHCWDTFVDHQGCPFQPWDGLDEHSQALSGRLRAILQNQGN
Chain of 5-hydroxytryptamine receptor 5A (P47898 whole entry): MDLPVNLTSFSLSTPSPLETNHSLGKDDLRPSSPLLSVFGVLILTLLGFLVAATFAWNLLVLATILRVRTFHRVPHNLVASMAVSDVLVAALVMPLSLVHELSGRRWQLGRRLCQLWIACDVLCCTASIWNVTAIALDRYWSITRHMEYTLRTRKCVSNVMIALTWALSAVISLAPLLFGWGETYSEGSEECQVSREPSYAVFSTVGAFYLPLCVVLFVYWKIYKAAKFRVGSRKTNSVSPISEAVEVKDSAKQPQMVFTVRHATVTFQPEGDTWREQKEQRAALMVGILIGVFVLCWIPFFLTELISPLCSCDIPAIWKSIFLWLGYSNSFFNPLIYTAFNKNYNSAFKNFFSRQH

COc1ccc(N2CCN(CCCN)CC2)cc1
EC50 [1]: > 112 µM (not active) | EC50 [2]: > 112 µM (not active) | IC50 [3]: 39.8 µM (active) | IC50 [4]: 23 µM (active) | CC50 [5]: > 40 µM (active)

CCn1c(=O)c2[nH]c(-c3ccccc3)nc2n(CC)c1=O
AC50 [6]: 3.98 µM (inconclusive) | AC50 [7]: 35.5 µM (inconclusive)

Cn1c(-c2ccc(F)cc2)cnc1NCc1ccc(F)cc1
EC50 [8]: 0.749 µM (active) | AC50 [9]: 4.7 µM (active) | IC50 [10]: 4.28 µM (active) | AC50 [11]: 8.91 µM (inconclusive) | AC50 [12]: 20 µM (inconclusive)

O=C(c1ccc(Cl)cc1)N1CCN(c2cccc(C(F)(F)F)n2)CC1
AC50 [13]: 172 µM (active)

COc1ccc(C(=O)c2sc(Nc3ccccc3F)nc2N)cc1
AC50 [14]: 3.41 µM (active) | AC50 [15]: 1.63 µM (active)

CCOc1ccc(-c2nc(CSCC(=O)NC(C)C)c(C)o2)cc1
IC50 [16]: > 80 µM (inactive) | IC50 [17]: 61.7 µM (inactive) | IC50 [18]: > 80 µM (inactive)

O=C1c2ccccc2C(=O)N1CC#CCN1CCN(C(c2ccccc2)c2ccccc2)CC1
AC50 [19]: 2.06 µM (active) | AC50 [20]: 25.2 µM (active)

CC(C=NNc1ccc([N+](=O)[O-])cn1)=Cc1ccccc1
IC50 [21]: > 67.5 µM (inactive) | IC50 [22]: > 67.5 µM (inactive)

CC(=O)Nc1ccc(CN2CCCC(C(=O)c3cccc(C(F)(F)F)c3)C2)cc1 (stereo unspecified)
EC50 [23]: 1.68 µM (active) | EC50 [24]: 39.4 µM (inactive) | EC50 [25]: > 92.5 µM (inactive) | EC50 [26]: > 92.5 µM (inactive)

Cc1c(CCC(=O)O)c(=O)oc2cc(OCc3cccc(F)c3)ccc12
AC50 [27]: 12.1 µM (active)

CCN1CCN(c2ccc(S(=O)(=O)N3CCOCC3)cc2NC(=O)/C=C/c2ccc([N+](=O)[O-])cc2)CC1
IC50 [28]: 8.67 µM (active) | IC50 [29]: 7.56 µM (active) | AC50 [30]: 8.13 µM (active) | AC50 [31]: 28.6 µM (active)
